Test results as given in the supplement of paper PMC8671470.
± gives the standard deviation of the averaged measurements.

Test system: HL-60
Assay: cell viability (% survival relative to DMSO control); higher = less cytotoxic
Conditions: 72 h
Procedure, shortened: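 Area under the curve, where listed, was derived from four-parameter log-logistic fits with drc and PharmacoGx. These fits used CellTiter-Glo viability from HL-60 cells in RPMI 1640 with 10% FBS, normalised to DMSO wells and wells holding 10 μM proteasome inhibitor. The full library was rescreened on 384-well plates in duplicate at five tenfold concentrations, 1–10,000 nM, with DMSO or 100 nM of one of three metabolic inhibitors, for 72 h at 37 °C, 5% CO2.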

[1] = 0.001 µM, co-treatment: AZD3965 100 nM
[2] = 0.001 µM, co-treatment: DMSO vehicle
[3] = 0.001 µM, co-treatment: GSK2194069 100 nM
[4] = 0.001 µM, co-treatment: pictilisib 100 nM
[5] = 0.01 µM, co-treatment: AZD3965 100 nM
[6] = 0.01 µM, co-treatment: DMSO vehicle
[7] = 0.01 µM, co-treatment: GSK2194069 100 nM
[8] = 0.01 µM, co-treatment: pictilisib 100 nM
[9] = 0.1 µM, co-treatment: AZD3965 100 nM
[10] = 0.1 µM, co-treatment: DMSO vehicle
[11] = 0.1 µM, co-treatment: GSK2194069 100 nM
[12] = 0.1 µM, co-treatment: pictilisib 100 nM
[13] = 1 µM, co-treatment: AZD3965 100 nM
[14] = 1 µM, co-treatment: DMSO vehicle
[15] = 1 µM, co-treatment: GSK2194069 100 nM
[16] = 1 µM, co-treatment: pictilisib 100 nM
[17] = 10 µM, co-treatment: AZD3965 100 nM
[18] = 10 µM, co-treatment: DMSO vehicle
[19] = 10 µM, co-treatment: GSK2194069 100 nM
[20] = 10 µM, co-treatment: pictilisib 100 nM

SMILES | cell viability [1] [%] | cell viability [2] [%] | cell viability [3] [%] | cell viability [4] [%] | cell viability [5] [%] | cell viability [6] [%] | cell viability [7] [%] | cell viability [8] [%] | cell viability [9] [%] | cell viability [10] [%] | cell viability [11] [%] | cell viability [12] [%] | cell viability [13] [%] | cell viability [14] [%] | cell viability [15] [%] | cell viability [16] [%] | cell viability [17] [%] | cell viability [18] [%] | cell viability [19] [%] | cell viability [20] [%]
CCOC(=O)[C@H]1O[C@@H]1C(=O)N[C@@H](CC(C)C)C(=O)NCCC(C)C [Aloxistatin] | 100 ± 1.1 | 102 ± 6 | 102 ± 11 | 106 ± 11 | 101 ± 4.6 | 104 ± 7.9 | 106 ± 15 | 115 ± 19 | 98 ± 5.8 | 100 ± 1.2 | 95.8 ± 2.5 | 100 ± 6.3 | 97.6 ± 3.7 | 100 ± 1.4 | 92.5 ± 11 | 106 ± 5.1 | 103 ± 6.2 | 99.7 ± 2.7 | 115 ± 23 | 99.7 ± 3.2
N[C@](CCCCB(O)O)(CCN1CCCCC1)C(=O)O [Arginase inhibitor 1] | 94.6 ± 14 | 102.5 ± 0.45 | 91.7 ± 12 | 87.5 ± 14 | 98.6 ± 5.9 | 97.3 ± 2 | 100 ± 5.7 | 94.4 ± 4.9 | 99.9 ± 2.7 | 102 ± 3.7 | 109.7 ± 0.86 | 98.3 ± 3 | 99.151 ± 0.014 | 98.12 ± 0.95 | 90.6 ± 12 | 90.8 ± 6.9 | 102.3 ± 0.42 | 103 ± 7.5 | 101 ± 6.6 | 99.5 ± 2.6
Cc1noc2c1-c1ccccc1C(c1ccc(Cl)cc1)=N[C@H]2CC(N)=O [CPI-0610] | 101 ± 2.2 | 96.3 ± 1.7 | 101 ± 1.7 | 104 ± 2.6 | 101 ± 1.5 | 95.3 ± 1.7 | 100.1 ± 0.39 | 94.4 ± 1.4 | 92 ± 14 | 98.8 ± 2.3 | 97.5 ± 6.9 | 75.5 ± 14 | 62.6 ± 7.4 | 74.8 ± 9.4 | 71.4 ± 2.1 | 45.8 ± 1.4 | 16.8 ± 1.1 | 23.7 ± 2.8 | 25.3 ± 6.1 | 8.68 ± 2.2
Nc1ccn([C@@H]2O[C@H](CO)[C@@H](O)[C@@H]2O)c(=O)n1 [Cytarabine] | 82 ± 32 | 80.7 ± 36 | 99.2 ± 2.5 | 103 ± 14 | 96.1 ± 7.4 | 102 ± 1.5 | 97.4 ± 1.3 | 101 ± 5.1 | 99.4 ± 4.1 | 101 ± 2.5 | 95.8 ± 1.5 | 84.52 ± 0.57 | 46.7 ± 9.3 | 59.5 ± 7 | 60.6 ± 3.9 | 30.9 ± 0.58 | 6.3 ± 2.2 | 6.92 ± 1.2 | 7.86 ± 0.42 | 6.83 ± 3
CCOc1ccc(Cc2cc([C@@H]3O[C@H](CO)[C@@H](O)[C@H](O)[C@H]3O)ccc2Cl)cc1 [Dapagliflozin] | 100.2 ± 0.34 | 105 ± 2.9 | 100.95 ± 0.06 | 99.1 ± 5.3 | 97.7 ± 4.2 | 101.3 ± 0.77 | 102 ± 1.1 | 103 ± 1.6 | 99.5 ± 0.33 | 100 ± 3.5 | 100 ± 4.8 | 101.6 ± 0.16 | 103.3 ± 0.55 | 99.6 ± 1.8 | 96 ± 1.6 | 104 ± 5.3 | 104 ± 2 | 103 ± 3.6 | 102 ± 4.6 | 100 ± 6.2
CCN(CC)CCN(Cc1ccc(-c2ccc(C(F)(F)F)cc2)cc1)C(=O)Cn1c(SCc2ccc(F)cc2)nc(=O)c2c1CCC2 [Darapladib] | 96.2 ± 14 | 103.1 ± 0.25 | 98.7 ± 14 | 85.9 ± 27 | 100 ± 3.4 | 99.55 ± 0.55 | 97.8 ± 1.3 | 97.2 ± 7 | 104 ± 1.6 | 101 ± 6.2 | 99.8 ± 1.8 | 102 ± 4.5 | 93.7 ± 2.3 | 96.27 ± 0.22 | 84.4 ± 10 | 97.3 ± 7.4 | -1.351 ± 0.0054 | -2.41 ± 0.42 | -2.4 ± 0.029 | -2.26 ± 0.088
O=C(O)C(Cl)Cl [Dichloroacetate] | 96.1 ± 3.5 | 96.5 ± 1.4 | 98.6 ± 9.5 | 89.5 ± 5.3 | 105 ± 4.1 | 104 ± 6.4 | 104 ± 2 | 100 ± 12 | 104 ± 4 | 102 ± 2.5 | 96.3 ± 9.7 | 91 ± 4 | 101 ± 2.4 | 101 ± 2.9 | 98.3 ± 5.9 | 99.9 ± 2.8 | 101 ± 1.1 | 100.4 ± 0.25 | 102.8 ± 0.97 | 97 ± 5.1
O=C1Oc2ccccc2C(=O)C1CC1C(=O)Oc2ccccc2C1=O (stereo not given) [Dicumarol] | 101 ± 6 | 104 ± 3.1 | 122 ± 4.6 | 103 ± 4.7 | 73.3 ± 30 | 102 ± 6.2 | 62.5 ± 23 | 91 ± 15 | 100 ± 3.5 | 100 ± 1.2 | 95.5 ± 1.2 | 103 ± 9 | 101 ± 5.3 | 100 ± 8.3 | 98.8 ± 5.7 | 102 ± 11 | 97.7 ± 4 | 99.1 ± 4.8 | 85 ± 7 | 92.1 ± 5
CC12CCC(O)CC1CCC1C2CCC2(C)C(C3=CC(=O)OC3)CCC12O (stereo not given) [Digitoxigenin] | 104 ± 7.6 | 99.5 ± 2.3 | 98.16 ± 0.98 | 104 ± 4.3 | 100 ± 5.7 | 105 ± 4.2 | 99.7 ± 2 | 105 ± 4.2 | 102 ± 1.2 | 100 ± 3 | 95 ± 3 | 101.7 ± 0.93 | -0.584 ± 0.77 | -1.01 ± 1.5 | -0.749 ± 1.5 | -1.18 ± 0.99 | -0.476 ± 0.086 | -0.944 ± 0.072 | -1.7 ± 0.21 | -1.09 ± 0.14
C[C@H]1O[C@@H](O[C@H]2[C@@H](O)C[C@H](O[C@H]3[C@@H](O)C[C@H](O[C@H]4CC[C@@]5(C)[C@H](CC[C@@H]6[C@@H]5C[C@@H](O)[C@]5(C)[C@@H](C7=CC(=O)OC7)CC[C@]65O)C4)O[C@@H]3C)O[C@@H]2C)C[C@H](O)[C@@H]1O [Digoxin] | 75.4 ± 20 | 96.3 ± 4.9 | 84.4 ± 2.7 | 90.5 ± 2.1 | 100.2 ± 0.99 | 102.5 ± 0.88 | 79.1 ± 12 | 89.6 ± 7.5 | 59.9 ± 4.1 | 59.4 ± 21 | 67.8 ± 22 | 51.4 ± 16 | -2.24 ± 0.7 | 0.303 ± 2.7 | -2.57 ± 0.89 | -2.59 ± 1.1 | -0.643 ± 0.45 | -1.62 ± 0.34 | -1.79 ± 0.52 | -1.33 ± 0.87
O=c1c2ccccc2[se]n1-c1ccccc1 [Ebselen] | 104 ± 4.5 | 98.4 ± 6.1 | 96.3 ± 1.7 | 96.51 ± 0.22 | 101 ± 1.1 | 98.6 ± 6.1 | 102 ± 2.2 | 92.1 ± 3.8 | 102 ± 11 | 103 ± 4.5 | 103 ± 11 | 97.4 ± 12 | 104 ± 5.3 | 99 ± 4.8 | 108 ± 10 | 103 ± 3.2 | 100 ± 1.4 | 95.7 ± 5.4 | 98.4 ± 1.8 | 86.2 ± 7.3
C#Cc1cnc(O)nc1O [Eniluracil] | 86 ± 17 | 102 ± 2 | 88.7 ± 30 | 85.5 ± 17 | 97.4 ± 1.8 | 101.6 ± 0.32 | 93.8 ± 3.5 | 100.4 ± 0.67 | 103 ± 2.1 | 101.1 ± 0.89 | 100.8 ± 0.49 | 99.32 ± 0.24 | 103 ± 1.8 | 99.9 ± 4.8 | 95.8 ± 9.8 | 102 ± 6.5 | 102.99 ± 0.034 | 101 ± 4.8 | 96.7 ± 6.7 | 103 ± 4.7
